Patent publication US20200370102A1, “BIOMARKER INDICATING RESPONSE TO POZIOTINIB THERAPY FOR CANCER” (HANMI PHARM. CO., LTD., priority 2017, published 2020)

Assays:
[1] = tested on: transplanted tumor cells; details: xenotransplantation animal model; cited from earlier work
[2] = tested on: HER2-positive metastatic breast cancer; assay: open-label, multicenter study of poziotinib monotherapy in breast cancer patients, with genotype (NGS) analysis; assay type: in vivo, human
Experimental: Poziotinib is a pan-HER inhibitor small molecule breast cancer therapeutic agent under clinical development. […] Recently, through an open-label, multicenter, two-phase study of poziotinib monotherapy, it was evaluated whether poziotinib was an option for breast cancer patients with HER2-positive metastatic breast cancer who twice or more experienced the failure of 2 HER2 target treatments. The genetic profile of HER2-positive metastatic breast cancer was evaluated, and the potential biomarkers of poziotinib for HER2-positive metastatic breast cancer (MBC) were investigated.
The experimental method is as follows. All participants with MBC were diagnosed with HER2-positive metastatic breast cancer according to the American Society of Clinical Oncology/College of-American Pathologist Her2 guideline. Fresh tissue samples or FFPE samples were obtained from these patients and used to extract DNA and RNA for next generation sequencing (NGS).
DNA and RNA were extracted from the samples and NGS was performed thereon. Targeted deep sequencing was performed by using a customized 381 cancer gene panel (CancerSCAN™, Samsung Hospital, Inc.) and the correlation among sequencing data, immunohistochemistry, and clinical outcome was analyzed.
An effective amount of poziotinib was administered to the breast cancer patients. The prognosis of the patients was observed. Prognosis was classified into partial remission (PR), stable disease (SD), and progressive disease (PD). For each patient, progressive free survival (PFS) was also identified.
From April 2015 to February 2016, 106 patients enrolled for clinical trials. Biomarker data were available for 75 of these patients.

[3] = tested on: EGFR family including Her1, Her2, and Her4; details: cited from earlier work
[4] = tested on: lung cancer cells resistant to gefitinib or erlotinib; details: cited from earlier work
[5] = tested on: cancer cells having overexpression of Her1 or Her2 or activated mutations; details: in vitro, various carcinomas; cited from earlier work
[6] = among the 75 patients with biomarker data

Q: With `C=CC(=O)N1CCC(Oc2cc3c(Nc4ccc(Cl)c(Cl)c4F)ncnc3cc2OC)CC1` [Poziotinib, 1-[4-[4-(3,4-dichloro-2-fluoroanilino)-7-methoxyquinazolin-6-yl]oxypiperidin-1-yl]prop-2-en-1-one] as the molecule, how does the tumor growth [1] read?
A: effectively blocks tumor growth

Q: And the “prognosis after poziotinib by genotype” value ([2]; BARD1 gene mutation present (mutation number=9))?
A: poor prognosis

Q: What about the “prognosis after poziotinib by genotype” value ([2]; CDK12 copy number amplification (42 subjects)) of the same molecule?
A: good prognosis

Q: And the “prognosis after poziotinib by genotype” value ([2]; ERBB3 gene mutation present (mutation number=10))?
A: poor prognosis

Q: What about the “prognosis after poziotinib by genotype” value ([2]; NOTCH gene mutation present (mutation number=13)) of the same molecule?
A: good prognosis

Q: What about the “prognosis after poziotinib by genotype” value ([2]; PIK3CA gene mutation present (mutation number=34)) of the same molecule?
A: poor prognosis

Q: And the “prognosis after poziotinib by genotype” value ([2]; SETBP1 gene mutation present (mutation number=13))?
A: poor prognosis

Q: What about the “prognosis after poziotinib by genotype” value ([2]; SH2B3 gene mutation present (mutation number=6)) of the same molecule?
A: good prognosis

Q: What about the “number of patients with partial remission (PR)” value [2, 6] of the same molecule?
A: 14

Q: And the “number of patients with progressive disease (PD)” value [2, 6]?
A: 20

Q: And the “prognosis after poziotinib by genotype” value ([2]; copy number amplification of the ERBB2 gene)?
A: good prognosis

Q: What about the “prognosis after poziotinib by genotype” value ([2]; copy number deletion of the BRCA1 gene) of the same molecule?
A: bad prognosis

Q: What about the “prognosis after poziotinib by genotype” value ([2]; copy number deletion of the STAT3 gene) of the same molecule?
A: bad prognosis

Q: And the “prognosis after poziotinib by genotype” value ([2]; deletion or amplification of the FGFR3 gene (copy number variations=5))?
A: bad prognosis

Q: What about the “prognosis of patients with ERBB2 gene or upstream mutations” value ([2]; patients 1 to 10 of the 13 patients with ERBB2 mutations, FIG. 13) of the same molecule?
A: partial remission and stable disease

Q: What about the “inhibition of the EGFR family” value [3] of the same molecule?
A: selectively and irreversibly inhibits

Q: And the “growth of lung cancer cells” value [4]?
A: effectively inhibits the growth

Q: What about the “growth of cancer cells” value [5] of the same molecule?
A: inhibits the growth of cancer cells
